Laboratory results reported in ChEMBL document CHEMBL1201862, “PubChem BioAssay data set” (2004).
Calls of active or inactive are those of the source.

Experiments:
cells = format: functional
[1] = HepG2 cell cytotoxicity, dose response, cytotoxicity control for non-replicating M. tuberculosis project (AID 489018); format: functional; settings: Mycobacterium tuberculosis
[2] = THP-1 cell cytotoxicity, dose response, cytotoxicity control for non-replicating M. tuberculosis project (AID 489025); format: functional
[3] = Vero E6 cell cytotoxicity, dose response, cytotoxicity control for non-replicating M. tuberculosis project, secondary assay (AID 492998); format: functional, VeroE6; settings: Vero C1008
Coagulation factor XII = molecular target: T1, Coagulation factor XII (Homo sapiens, UniProt P00748); format: functional;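 further: activated factor XIIa alpha cleaving a fluorogenic AMC peptide substrate; inhibitor potency from loss of enzyme activity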
T1 sequence (P00748 whole entry): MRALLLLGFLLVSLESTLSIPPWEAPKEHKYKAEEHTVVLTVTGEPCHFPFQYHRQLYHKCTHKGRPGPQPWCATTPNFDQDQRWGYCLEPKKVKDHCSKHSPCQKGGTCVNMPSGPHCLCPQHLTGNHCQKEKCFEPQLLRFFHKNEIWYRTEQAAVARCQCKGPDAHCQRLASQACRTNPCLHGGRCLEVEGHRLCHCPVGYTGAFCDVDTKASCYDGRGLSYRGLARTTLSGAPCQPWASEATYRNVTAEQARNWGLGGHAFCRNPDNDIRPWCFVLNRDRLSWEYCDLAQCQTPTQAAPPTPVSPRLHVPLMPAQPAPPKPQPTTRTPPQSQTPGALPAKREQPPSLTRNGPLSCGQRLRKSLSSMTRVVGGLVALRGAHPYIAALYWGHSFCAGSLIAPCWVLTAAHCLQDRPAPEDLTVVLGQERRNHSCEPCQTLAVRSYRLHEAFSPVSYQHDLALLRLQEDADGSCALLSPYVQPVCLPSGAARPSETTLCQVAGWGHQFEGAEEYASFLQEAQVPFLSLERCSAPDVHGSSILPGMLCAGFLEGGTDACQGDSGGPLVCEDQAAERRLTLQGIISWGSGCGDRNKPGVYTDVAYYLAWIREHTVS

[4] = molecular target: T2, RNA-binding protein pos-1 (Caenorhabditis elegans, UniProt G5EF15); experiment: disruptors of C. elegans POS-1 RNA interaction – biochemical, fluorescence polarization, dose response (AID 1964);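 further: purified POS-1 fused to maltose binding protein made in E. coli; potency of compounds blocking POS-1 binding to fluorescent RNA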
T2 sequence (G5EF15 whole entry): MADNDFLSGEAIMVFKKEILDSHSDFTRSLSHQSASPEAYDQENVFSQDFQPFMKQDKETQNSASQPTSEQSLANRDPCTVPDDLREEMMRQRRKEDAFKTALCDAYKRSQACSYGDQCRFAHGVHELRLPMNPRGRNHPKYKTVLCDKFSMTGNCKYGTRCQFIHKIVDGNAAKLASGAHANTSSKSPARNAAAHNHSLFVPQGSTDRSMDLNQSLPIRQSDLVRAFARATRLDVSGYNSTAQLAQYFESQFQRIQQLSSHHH

[5] = molecular target: Peroxisome proliferator-activated receptor gamma/Nuclear receptor coactivator 1 (Homo sapiens, UniProt P37231); experiment: (§1) TR-FRET dose response biochemical High Throughput Screening assay for agonists of the steroid receptor coactivator 1 (SRC-1) recruitment by the peroxisome proliferator-activated receptor gamma (PPAR gamma): non-selective agonists. [Related pubchem assays (depositor defined):AID1300, AID1808, AID504735, AID631]; format: protein assay
[6] = molecular target: Peroxisome proliferator-activated receptor gamma/Nuclear receptor coactivator 3 (Homo sapiens, UniProt P37231); experiment: as §1, with “3 (SRC-3)” for “1 (SRC-1)”, “assays: 1301 (Confirmation screen.), 1048 (Primary screen.)]” for “assays (depositor defined):AID1300, AID1808, AID504735, AID631]”; format: functional
Chain of Peroxisome proliferator-activated receptor gamma/Nuclear receptor coactivator 3 (P37231 whole entry): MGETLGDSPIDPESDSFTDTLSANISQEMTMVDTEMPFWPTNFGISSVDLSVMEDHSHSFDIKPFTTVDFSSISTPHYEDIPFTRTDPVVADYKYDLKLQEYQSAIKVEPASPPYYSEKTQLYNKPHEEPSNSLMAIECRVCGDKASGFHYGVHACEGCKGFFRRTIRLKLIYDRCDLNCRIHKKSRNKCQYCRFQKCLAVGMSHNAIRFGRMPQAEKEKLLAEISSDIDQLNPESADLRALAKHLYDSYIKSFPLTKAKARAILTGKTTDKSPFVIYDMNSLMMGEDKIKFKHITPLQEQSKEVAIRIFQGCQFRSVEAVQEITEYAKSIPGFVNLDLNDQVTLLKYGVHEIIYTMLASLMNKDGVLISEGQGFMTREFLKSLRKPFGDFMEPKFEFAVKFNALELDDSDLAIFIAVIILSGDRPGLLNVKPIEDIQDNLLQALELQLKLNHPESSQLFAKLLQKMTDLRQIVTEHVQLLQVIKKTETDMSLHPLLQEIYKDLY
Chain of Peroxisome proliferator-activated receptor gamma/Nuclear receptor coactivator 3 (Q9Y6Q9 whole entry, further chain): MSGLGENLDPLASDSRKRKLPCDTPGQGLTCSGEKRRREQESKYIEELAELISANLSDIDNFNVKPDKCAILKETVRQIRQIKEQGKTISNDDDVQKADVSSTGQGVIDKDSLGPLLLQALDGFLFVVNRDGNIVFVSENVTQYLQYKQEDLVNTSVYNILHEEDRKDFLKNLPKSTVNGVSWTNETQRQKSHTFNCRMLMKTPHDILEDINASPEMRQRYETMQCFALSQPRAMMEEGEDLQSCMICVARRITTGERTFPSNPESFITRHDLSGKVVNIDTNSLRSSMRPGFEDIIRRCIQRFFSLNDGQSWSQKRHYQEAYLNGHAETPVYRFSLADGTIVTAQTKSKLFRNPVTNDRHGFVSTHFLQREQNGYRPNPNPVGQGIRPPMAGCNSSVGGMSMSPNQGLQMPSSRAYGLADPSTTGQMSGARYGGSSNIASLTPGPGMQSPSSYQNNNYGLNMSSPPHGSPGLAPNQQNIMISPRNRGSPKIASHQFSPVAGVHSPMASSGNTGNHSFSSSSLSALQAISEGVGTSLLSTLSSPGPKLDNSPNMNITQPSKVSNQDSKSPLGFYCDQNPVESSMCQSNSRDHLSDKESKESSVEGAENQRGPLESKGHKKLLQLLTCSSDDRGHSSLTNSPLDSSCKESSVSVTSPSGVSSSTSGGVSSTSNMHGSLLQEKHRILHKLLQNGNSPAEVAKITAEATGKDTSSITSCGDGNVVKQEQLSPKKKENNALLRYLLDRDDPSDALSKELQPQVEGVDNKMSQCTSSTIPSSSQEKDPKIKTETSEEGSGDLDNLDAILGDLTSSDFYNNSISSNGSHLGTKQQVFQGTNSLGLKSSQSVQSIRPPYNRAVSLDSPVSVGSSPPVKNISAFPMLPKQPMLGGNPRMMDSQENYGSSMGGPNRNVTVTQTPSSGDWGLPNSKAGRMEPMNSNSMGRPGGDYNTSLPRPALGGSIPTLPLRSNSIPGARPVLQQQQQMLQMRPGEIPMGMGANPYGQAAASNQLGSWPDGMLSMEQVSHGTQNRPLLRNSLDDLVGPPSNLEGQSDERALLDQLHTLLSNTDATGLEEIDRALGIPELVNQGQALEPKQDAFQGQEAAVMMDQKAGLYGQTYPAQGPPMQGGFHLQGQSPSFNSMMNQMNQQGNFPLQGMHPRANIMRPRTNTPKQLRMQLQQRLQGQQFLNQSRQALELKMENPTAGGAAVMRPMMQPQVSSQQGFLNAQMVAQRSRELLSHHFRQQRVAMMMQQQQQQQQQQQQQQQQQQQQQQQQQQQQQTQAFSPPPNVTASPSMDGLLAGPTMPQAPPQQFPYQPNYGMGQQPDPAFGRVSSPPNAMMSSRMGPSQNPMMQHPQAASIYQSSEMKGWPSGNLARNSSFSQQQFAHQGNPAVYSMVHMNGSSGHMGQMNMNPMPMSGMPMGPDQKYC

[7] = molecular target: Peroxisome proliferator-activated receptor gamma/Nuclear receptor coactivator 2 (Homo sapiens, UniProt P37231); experiment: TR-FRET dose response biochemical High Throughput Screening assay for agonists of the steroid receptor coactivator 2 (SRC-2) recruitment by the peroxisome proliferator-activated receptor gamma (PPAR gamma): non-selective agonists. [Related pubchem assays: 1297, 1032 ]; format: functional
Chain of Peroxisome proliferator-activated receptor gamma/Nuclear receptor coactivator 2 (P37231 whole entry): as the sequence (P37231 whole entry) above
Chain of Peroxisome proliferator-activated receptor gamma/Nuclear receptor coactivator 2 (Q15596 whole entry, further chain): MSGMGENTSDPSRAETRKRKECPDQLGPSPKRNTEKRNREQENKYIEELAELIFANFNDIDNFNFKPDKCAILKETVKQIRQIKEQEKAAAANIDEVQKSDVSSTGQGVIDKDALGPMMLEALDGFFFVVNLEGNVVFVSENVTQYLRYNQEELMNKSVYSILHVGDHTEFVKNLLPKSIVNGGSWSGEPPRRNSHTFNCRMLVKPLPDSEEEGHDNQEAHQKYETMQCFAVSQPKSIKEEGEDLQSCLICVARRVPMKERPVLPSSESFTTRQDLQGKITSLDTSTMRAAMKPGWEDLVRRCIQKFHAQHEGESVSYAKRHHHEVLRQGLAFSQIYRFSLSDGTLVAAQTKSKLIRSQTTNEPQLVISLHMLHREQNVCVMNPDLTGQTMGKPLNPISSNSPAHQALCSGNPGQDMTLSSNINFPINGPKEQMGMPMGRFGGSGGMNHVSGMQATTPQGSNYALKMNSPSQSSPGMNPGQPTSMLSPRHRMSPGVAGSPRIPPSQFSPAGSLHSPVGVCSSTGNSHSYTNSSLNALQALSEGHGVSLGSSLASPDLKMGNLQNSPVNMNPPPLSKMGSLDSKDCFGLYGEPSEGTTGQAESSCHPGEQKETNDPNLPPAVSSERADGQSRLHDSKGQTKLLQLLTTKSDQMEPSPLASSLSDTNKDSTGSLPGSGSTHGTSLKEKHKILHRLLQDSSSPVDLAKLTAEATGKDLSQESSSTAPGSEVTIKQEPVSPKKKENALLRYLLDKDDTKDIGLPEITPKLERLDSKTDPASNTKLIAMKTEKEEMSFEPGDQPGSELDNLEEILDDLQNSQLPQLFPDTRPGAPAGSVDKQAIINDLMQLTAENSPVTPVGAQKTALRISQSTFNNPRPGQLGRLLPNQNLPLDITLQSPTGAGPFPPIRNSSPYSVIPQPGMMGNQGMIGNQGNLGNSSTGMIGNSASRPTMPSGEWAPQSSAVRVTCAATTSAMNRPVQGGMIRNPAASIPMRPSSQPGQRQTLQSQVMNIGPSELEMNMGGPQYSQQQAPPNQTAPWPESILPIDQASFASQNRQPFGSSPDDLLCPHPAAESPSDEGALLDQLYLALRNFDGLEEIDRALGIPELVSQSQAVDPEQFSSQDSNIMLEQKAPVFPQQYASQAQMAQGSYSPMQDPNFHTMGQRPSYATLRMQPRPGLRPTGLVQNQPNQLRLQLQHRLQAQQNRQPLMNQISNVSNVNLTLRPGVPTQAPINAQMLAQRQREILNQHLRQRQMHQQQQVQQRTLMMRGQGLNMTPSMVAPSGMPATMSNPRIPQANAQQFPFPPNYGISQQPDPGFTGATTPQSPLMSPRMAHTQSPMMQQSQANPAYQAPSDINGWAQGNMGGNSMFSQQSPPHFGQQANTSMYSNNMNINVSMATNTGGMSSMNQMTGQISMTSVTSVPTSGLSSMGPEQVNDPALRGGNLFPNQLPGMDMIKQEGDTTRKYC

[8] = molecular target: T3, Zinc finger protein mex-5 (Caenorhabditis elegans, UniProt Q9XUB2); experiment: potency of MEX-5 RNA-binding blockers – biochemical, C. elegans, fluorescence polarization, dose response (AID 1960)
T3 sequence (Q9XUB2 whole entry): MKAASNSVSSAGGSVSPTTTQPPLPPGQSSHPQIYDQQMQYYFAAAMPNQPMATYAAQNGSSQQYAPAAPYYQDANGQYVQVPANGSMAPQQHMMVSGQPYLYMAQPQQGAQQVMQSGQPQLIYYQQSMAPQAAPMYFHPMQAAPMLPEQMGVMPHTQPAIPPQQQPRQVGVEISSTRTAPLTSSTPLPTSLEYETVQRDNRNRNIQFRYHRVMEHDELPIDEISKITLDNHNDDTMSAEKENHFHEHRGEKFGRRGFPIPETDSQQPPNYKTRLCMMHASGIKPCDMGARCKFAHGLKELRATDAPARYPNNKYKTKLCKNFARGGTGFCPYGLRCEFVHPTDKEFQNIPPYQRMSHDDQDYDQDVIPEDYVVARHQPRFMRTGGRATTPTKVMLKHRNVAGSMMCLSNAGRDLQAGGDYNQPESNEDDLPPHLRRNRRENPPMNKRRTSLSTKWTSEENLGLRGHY

[9] = CCR5-tropic HIV-1 fusion blockers – cell-based, CCR5-tropic Env, dose response (AID 2279); format: functional
HT-1080 = experiment: HT1080 cell viability loss – fluorescence readout (AID 620); format: functional, cell-based; settings: Homo sapiens
[10] = Luminescence Cell-Based Dose Confirmation HTS to Identify Inhibitors of Platelet Dense Granule Release. [Related pubchem assays: 1663 (Primary HTS), 1678 (Summary of Project)]; format: functional
Aminopeptidase N = molecular target: T4, Aminopeptidase N (Plasmodium falciparum FcB1/Columbia, UniProt O96935); experiment: malaria alanyl aminopeptidase activity blockers – biochemical, fluorogenic H-Leu-NHMec substrate, 1536-well (AID 1445); design: species or system Plasmodium falciparum 3D7, 3D7
T4 sequence (O96935 whole entry): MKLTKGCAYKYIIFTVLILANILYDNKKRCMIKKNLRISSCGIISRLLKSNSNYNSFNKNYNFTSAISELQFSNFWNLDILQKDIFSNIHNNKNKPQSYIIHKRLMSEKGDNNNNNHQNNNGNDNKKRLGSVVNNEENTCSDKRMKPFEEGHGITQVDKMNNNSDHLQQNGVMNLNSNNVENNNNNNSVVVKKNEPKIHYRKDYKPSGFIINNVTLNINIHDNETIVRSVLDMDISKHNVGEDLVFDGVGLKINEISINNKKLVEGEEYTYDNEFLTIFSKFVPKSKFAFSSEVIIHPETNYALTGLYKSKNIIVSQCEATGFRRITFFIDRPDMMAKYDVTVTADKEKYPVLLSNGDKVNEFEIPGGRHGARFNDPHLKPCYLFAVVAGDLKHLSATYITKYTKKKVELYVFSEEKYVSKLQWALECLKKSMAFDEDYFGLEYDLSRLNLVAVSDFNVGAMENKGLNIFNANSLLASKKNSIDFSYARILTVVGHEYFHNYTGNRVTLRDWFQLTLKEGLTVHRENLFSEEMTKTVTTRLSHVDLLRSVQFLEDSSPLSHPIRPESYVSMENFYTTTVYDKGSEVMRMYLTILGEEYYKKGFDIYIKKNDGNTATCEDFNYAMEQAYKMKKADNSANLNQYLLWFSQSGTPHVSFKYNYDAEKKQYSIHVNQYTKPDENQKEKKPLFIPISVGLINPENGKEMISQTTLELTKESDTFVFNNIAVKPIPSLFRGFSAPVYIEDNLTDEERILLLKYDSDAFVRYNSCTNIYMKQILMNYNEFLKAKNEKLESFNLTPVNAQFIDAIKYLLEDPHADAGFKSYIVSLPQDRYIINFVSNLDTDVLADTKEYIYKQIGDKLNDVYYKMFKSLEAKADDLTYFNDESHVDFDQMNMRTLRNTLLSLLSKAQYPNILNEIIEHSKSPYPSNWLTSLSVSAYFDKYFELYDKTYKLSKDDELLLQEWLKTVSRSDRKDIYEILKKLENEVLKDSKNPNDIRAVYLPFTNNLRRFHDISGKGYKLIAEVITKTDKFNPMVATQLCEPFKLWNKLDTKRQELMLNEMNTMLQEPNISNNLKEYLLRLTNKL

[11] = molecular target: T5, Rac GTPase-activating protein 1 (Homo sapiens, UniProt Q9H0H5); experiment: blockers of MgcRacGAP-driven Rac1 GTP hydrolysis – biochemical, ADP Hunter fluorescence, primary and confirmatory, confirmation (AID 624330); format: functional
T5 sequence (Q9H0H5 whole entry): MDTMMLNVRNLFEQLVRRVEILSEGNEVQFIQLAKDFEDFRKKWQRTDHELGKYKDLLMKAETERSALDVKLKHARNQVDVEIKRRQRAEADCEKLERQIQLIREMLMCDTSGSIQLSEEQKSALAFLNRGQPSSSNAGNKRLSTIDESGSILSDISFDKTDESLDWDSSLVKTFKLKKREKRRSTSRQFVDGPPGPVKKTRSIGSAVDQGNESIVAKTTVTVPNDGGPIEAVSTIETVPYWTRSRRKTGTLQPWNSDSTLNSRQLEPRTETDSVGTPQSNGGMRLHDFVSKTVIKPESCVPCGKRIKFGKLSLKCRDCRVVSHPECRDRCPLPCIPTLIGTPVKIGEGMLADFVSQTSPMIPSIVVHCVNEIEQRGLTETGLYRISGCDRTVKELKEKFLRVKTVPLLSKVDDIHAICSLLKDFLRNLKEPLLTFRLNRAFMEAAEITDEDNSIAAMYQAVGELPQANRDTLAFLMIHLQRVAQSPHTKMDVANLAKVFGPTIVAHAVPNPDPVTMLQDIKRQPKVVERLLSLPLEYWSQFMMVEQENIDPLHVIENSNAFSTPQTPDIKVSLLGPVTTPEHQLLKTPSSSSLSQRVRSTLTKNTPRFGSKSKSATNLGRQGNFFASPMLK

[12] = molecular target: T6, Luciferin 4-monooxygenase (Photinus pyralis, UniProt P08659); experiment: Counter Screen for Luciferase-based Assay Positives. [Related pubchem assays: 620, 618, 411 ]
T6 sequence (P08659 whole entry): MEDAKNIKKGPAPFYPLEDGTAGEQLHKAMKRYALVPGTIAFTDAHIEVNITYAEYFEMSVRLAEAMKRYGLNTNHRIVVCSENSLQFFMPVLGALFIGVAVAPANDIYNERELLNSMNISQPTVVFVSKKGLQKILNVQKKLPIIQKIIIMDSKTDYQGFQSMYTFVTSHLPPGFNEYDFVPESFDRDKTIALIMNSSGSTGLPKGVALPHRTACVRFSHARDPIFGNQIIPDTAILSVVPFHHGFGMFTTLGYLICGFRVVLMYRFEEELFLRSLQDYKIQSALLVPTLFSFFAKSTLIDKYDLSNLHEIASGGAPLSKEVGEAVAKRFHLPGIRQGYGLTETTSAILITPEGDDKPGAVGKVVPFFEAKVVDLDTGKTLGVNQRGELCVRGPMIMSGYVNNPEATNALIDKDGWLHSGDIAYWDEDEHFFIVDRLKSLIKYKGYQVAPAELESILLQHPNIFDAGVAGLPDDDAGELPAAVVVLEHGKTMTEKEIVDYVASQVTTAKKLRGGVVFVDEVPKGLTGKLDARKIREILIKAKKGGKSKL

[13] = molecular target: T6, Luciferin 4-monooxygenase; experiment: inhibition of purified Photinus pyralis luciferase – biochemical, luminescence, dose response (AID 1891)
[14] = microbe, parasite or virus in culture; format: functional; settings: Mycobacterium tuberculosis
[15] = Trypanosoma cruzi growth suppression in host cells – NIH3T3 host cells, beta-gal luminescence, confirmation (AID 2044); format: functional, cell-based;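 further: intracellular parasites grown in NIH/3T3 mouse fibroblasts as host cells; luminescent beta-galactosidase reporter signal from transgenic T. cruzi replicating inside host cells; inhibitors lower the luminescence signal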
[16] = NIH3T3 cell viability loss – ATP luminescence, mouse fibroblasts, counter-screen, dose response (AID 2010); format: functional, cell-based;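 further: cells exposed to compound for about 90 hours before reading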
[17] = A cytotoxicity screen of small molecule inhibitors of the PhoP region in Salmonella typhi identified in the primary screen. [Related pubchem assays: 1850, 1864, 1985 ]; format: functional

## Cc1cc(C)c2ccc(/C=N/O)nc2c1O
cells
  IC50: 4.25 µM (active)
[1]
  CC50: > 20 µM (active)
[2]
  CC50: 22.9 µM (active)
[3]
  CC50: 19.5 µM (active)

## Cc1cc(Nc2ccc(C)c(C)c2)n2nc(C)nc2n1
Coagulation factor XII
  IC50: > 50 µM (inactive)

## Cc1nnc(N2C(=O)C(O)=C(C(=O)c3ccco3)C2c2ccc(F)cc2)s1 (stereo unspecified)
[4]
  EC50: 34.2 µM (active)
[5]
  EC50: > 79.4 µM (inactive)
[6]
  EC50: > 79.4 µM (not active)
[7]
  EC50: 27 µM (not active)
[8]
  EC50: 32.9 µM (active)

## Nn1c(C2CCCCC2)nc2ccccc2c1=O
Coagulation factor XII
  IC50: > 50 µM (inactive)

## COc1ccc(-c2nn(-c3ccccc3)cc2/C=C2/SC(=S)N(CCCC(=O)O)C2=O)c(C)c1
[9]
  IC50: 45 µM (active)

## Nc1ccc(-c2nc3ccc(N)cc3o2)cc1
HT-1080
  EC50: > 50 µM (not active)
[10]
  EC50: 25 µM (active)
Aminopeptidase N
  IC50: 26.2 µM (active)
[11]
  IC50: 47.8 µM (active)
[12]
  EC50: 6.3 µM (active)
[13]
  EC50: 20.1 µM (active)

## Cc1ccc(NC(=O)COc2ccccc2CNC(C)(C)CC(C)(C)C)cc1
cells
  IC50: 13.4 µM (active)
[1]
  CC50: 13.8 µM (active)
[14]
  CC50: 23.4 µM (active)
[2]
  CC50: 18.9 µM (active)
[3]
  CC50: 15.7 µM (active)
[15]
  EC50: 1.36 µM (active)
[16]
  EC50: 8.6 µM (active)

## O=C(Nc1ccc2nc(S)sc2c1)Nc1ccccc1F
[17]
  EC50: > 50 µM (active)
